Reference: ChEMBL document CHEMBL1128457, “New antihistamines: substituted piperazine and piperidine derivatives as novel H1-antagonists” (J Med Chem, 1995)
Values belong to the molecule of their own block, whether it stands above or below them.

Key:
[1] = target: Histamine H1 receptor (Cavia porcellus) (UniProt P31389); test: In vitro antagonism of histamine-induced contraction of guinea pig ileum at 1x10E-7M; assay type: functional, tissue-based
[2] = Partition coefficient (logP); assay type: physicochemical; settings: octanol/water
[3] = Dissociation constant (KD) of the compound
[4] = pA2 value is determined compared to standard H1-antagonists; assay type: ADME
Cavia porcellus [5] = test: Compound is tested for protection by antihistamines against histamine-induced lethality in the guinea pig by oral administration with a pretreatment period of 1 h; assay type: functional
Cavia porcellus [6] = test: Compound is tested for protection by antihistamines against histamine-induced lethality in the guinea pig by oral administration with pretreatment period of 18 h; assay type: functional
[7] = target: T1, 5-hydroxytryptamine receptor 1A (Homo sapiens, UniProt P08908); test: Compound is evaluated for in vitro receptor binding affinity against 5-hydroxytryptamine 1A receptor; parameters: species or system Cavia porcellus
T1 sequence (P08908 whole entry): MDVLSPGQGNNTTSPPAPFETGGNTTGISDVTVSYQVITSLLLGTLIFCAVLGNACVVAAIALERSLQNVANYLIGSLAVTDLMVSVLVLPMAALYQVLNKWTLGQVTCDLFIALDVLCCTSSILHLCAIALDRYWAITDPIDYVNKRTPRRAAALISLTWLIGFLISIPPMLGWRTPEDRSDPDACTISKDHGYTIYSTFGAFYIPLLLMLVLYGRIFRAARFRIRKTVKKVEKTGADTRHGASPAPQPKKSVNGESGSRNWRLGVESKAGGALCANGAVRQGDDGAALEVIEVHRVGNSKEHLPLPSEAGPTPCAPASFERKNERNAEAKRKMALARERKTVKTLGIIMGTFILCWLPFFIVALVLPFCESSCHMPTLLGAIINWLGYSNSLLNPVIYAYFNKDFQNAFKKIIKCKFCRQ

[8] = target: T2, Adrenergic receptor alpha-1 (Homo sapiens, UniProt P35348+P25100+P35368); test: Compound is evaluated for in vitro receptor binding affinity against Alpha-1 adrenergic receptor; assay type: protein assay, Cavia porcellus
T2 sequence (P35348 whole entry): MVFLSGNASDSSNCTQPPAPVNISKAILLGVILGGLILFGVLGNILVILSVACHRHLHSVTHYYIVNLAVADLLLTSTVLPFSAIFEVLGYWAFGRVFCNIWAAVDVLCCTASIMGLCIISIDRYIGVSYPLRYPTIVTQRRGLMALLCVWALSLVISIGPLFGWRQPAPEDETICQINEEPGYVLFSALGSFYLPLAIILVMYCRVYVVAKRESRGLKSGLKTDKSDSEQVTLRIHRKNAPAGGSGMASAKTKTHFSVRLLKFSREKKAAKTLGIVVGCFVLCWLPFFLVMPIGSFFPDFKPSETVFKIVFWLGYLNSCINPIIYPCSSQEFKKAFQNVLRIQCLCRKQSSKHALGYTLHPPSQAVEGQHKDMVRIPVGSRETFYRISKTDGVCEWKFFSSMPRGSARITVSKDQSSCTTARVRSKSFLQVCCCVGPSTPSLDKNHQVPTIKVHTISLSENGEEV
T2 sequence (P25100 whole entry): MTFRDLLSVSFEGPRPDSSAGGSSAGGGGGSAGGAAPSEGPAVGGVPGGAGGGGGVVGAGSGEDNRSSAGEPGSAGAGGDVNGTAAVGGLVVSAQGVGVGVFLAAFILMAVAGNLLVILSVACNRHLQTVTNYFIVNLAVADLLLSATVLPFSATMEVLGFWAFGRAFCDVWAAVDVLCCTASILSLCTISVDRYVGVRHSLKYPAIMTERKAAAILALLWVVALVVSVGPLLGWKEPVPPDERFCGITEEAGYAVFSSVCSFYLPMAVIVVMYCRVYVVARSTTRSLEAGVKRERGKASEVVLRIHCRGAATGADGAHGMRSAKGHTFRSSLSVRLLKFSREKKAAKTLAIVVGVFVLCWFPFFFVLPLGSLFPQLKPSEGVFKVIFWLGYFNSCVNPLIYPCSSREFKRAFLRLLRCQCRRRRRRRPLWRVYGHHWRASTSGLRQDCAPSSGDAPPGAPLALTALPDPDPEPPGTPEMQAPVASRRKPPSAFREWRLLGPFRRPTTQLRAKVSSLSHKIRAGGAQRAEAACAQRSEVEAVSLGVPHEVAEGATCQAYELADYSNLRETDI
T2 sequence (P35368 whole entry): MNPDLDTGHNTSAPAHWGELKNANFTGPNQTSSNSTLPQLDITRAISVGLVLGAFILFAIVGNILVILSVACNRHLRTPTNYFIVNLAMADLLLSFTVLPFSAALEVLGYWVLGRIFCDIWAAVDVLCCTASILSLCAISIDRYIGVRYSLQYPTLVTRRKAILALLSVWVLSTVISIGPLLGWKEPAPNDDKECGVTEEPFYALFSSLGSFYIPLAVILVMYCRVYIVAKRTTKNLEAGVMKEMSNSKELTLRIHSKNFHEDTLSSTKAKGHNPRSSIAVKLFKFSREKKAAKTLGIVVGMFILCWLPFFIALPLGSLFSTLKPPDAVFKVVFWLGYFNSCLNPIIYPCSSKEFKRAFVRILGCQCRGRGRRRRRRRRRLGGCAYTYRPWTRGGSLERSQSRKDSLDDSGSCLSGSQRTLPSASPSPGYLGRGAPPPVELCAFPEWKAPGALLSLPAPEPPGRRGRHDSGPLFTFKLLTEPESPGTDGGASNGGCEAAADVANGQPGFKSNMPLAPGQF

D(2) dopamine receptor = D(2) dopamine receptor (Homo sapiens, UniProt P14416); test: Compound is evaluated for in vitro receptor binding affinity against Dopamine receptor D2; parameters: species or system Cavia porcellus
[9] = target: Histamine H1 receptor (Cavia porcellus) (UniProt P31389); test: Compound is evaluated for the inhibition of H1-receptor antagonists of histamine-induced skin wheal formation in the guinea pig with a pretreatment interval prior to histamine challenge at 1 h; assay type: functional
Histamine H1 receptor = Histamine H1 receptor (Cavia porcellus, UniProt P31389); test: Compound is evaluated for in vitro receptor binding affinity against H1 receptor
[10] = target: T3, Muscarinic acetylcholine receptor M1 (Homo sapiens, UniProt P11229); test: Compound is evaluated for in vitro receptor binding affinity against Muscarinic acetylcholine receptor M1; parameters: species or system Cavia porcellus
T3 sequence (P11229 whole entry): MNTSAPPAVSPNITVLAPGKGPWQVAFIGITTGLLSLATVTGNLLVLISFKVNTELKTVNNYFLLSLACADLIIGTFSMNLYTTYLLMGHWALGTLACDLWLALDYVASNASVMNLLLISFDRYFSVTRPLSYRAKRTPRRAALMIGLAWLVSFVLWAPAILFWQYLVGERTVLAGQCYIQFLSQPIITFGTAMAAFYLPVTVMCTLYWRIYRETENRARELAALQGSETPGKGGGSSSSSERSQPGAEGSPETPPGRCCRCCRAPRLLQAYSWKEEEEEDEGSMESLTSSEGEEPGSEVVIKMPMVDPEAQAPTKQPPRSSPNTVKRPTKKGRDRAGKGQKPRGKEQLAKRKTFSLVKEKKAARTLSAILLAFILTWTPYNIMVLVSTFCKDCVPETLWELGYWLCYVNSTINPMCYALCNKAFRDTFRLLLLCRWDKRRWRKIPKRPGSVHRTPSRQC

[11] = target: T4, Muscarinic acetylcholine receptor M2 (Homo sapiens, UniProt P08172); test: Compound is evaluated for in vitro receptor binding affinity against Muscarinic acetylcholine receptor M2; parameters: species or system Cavia porcellus
T4 sequence (P08172 whole entry): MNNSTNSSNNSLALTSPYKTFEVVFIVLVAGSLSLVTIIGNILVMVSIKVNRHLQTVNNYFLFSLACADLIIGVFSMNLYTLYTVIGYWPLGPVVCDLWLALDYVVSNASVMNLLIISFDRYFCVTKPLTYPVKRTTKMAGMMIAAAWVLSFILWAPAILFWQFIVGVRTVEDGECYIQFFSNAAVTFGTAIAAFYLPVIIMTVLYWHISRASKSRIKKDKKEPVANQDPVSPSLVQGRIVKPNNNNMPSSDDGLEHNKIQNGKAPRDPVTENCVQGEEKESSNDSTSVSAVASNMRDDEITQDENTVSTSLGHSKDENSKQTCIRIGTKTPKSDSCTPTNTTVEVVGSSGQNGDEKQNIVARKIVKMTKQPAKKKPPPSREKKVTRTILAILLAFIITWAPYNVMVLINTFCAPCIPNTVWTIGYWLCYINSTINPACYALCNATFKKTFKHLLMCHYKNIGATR

[12] = Potency relative to 7-[3-(4-Benzhydryloxy-piperidine-1-yl)-propyl]-1,3-dimethyl-3,7-dihydro-purine-2,6-dione; Relative potency = […]/[…]
[13] = target: Histamine H1 receptor (Cavia porcellus) (UniProt P31389); test: Compound is evaluated for the inhibition of H1-receptor antagonists of histamine-induced skin wheal formation in the guinea pig with a pretreatment interval prior to histamine challenge at 18 h; assay type: functional

Histamine H1 receptor (Cavia porcellus), sequence (P31389 whole entry): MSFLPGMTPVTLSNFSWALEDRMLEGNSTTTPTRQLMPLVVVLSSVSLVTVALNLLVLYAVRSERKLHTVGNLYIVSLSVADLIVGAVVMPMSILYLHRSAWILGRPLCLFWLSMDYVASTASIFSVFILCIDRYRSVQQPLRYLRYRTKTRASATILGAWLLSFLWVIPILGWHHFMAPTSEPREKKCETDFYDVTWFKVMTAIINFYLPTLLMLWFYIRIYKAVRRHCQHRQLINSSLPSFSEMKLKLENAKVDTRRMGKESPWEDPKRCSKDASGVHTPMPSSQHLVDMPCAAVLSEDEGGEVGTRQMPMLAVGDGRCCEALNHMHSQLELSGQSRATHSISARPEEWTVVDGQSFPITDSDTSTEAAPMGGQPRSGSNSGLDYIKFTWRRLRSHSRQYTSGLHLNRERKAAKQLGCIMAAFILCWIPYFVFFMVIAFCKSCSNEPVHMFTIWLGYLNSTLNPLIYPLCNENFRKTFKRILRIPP
D(2) dopamine receptor, sequence (P14416 whole entry): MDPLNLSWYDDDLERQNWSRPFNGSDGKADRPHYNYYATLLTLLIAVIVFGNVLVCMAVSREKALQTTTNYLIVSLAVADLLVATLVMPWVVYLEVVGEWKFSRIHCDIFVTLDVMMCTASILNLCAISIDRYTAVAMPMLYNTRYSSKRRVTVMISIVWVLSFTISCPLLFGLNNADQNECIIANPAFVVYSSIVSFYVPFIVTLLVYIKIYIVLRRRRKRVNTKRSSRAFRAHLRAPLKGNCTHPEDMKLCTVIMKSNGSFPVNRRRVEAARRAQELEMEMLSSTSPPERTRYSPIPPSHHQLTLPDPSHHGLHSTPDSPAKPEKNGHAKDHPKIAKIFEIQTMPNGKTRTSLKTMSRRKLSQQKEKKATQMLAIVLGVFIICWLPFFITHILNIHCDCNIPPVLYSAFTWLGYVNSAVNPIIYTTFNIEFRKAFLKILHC
Histamine H1 receptor, sequence (P31389 whole entry): as the sequence (P31389 whole entry) above

Compound: Cn1c(=O)c2c(ncn2CCCCN2CCN(C(c3ccc(Cl)cc3)c3ccc(Cl)cc3)CC2)n(C)c1=O
inhibition [1]: 14%

Compound: O=C1C2C3C=CC(C4CC34)C2C(=O)N1CCCN1CCN(C(c2ccc(F)cc2)c2ccc(F)cc2)CC1 (centres undefined)
inhibition [1]: 29%

Compound: Cn1c(=O)c2c(ncn2CCCN2CCN(c3nccnc3Cl)CC2)n(C)c1=O
inhibition [1]: < 10%

Compound: Cn1c(=O)c2c(ncn2CCCN2CCN(c3cncc(Cl)n3)CC2)n(C)c1=O
inhibition [1]: 29%

Compound: O=C1C2C3C=CC(C4CC34)C2C(=O)N1CCCN1CCN(C(c2ccccc2)c2ccc(Cl)cc2)CC1 (centres undefined)
inhibition [1]: < 10%

Compound: CC(C)(C)c1ccc(C(=O)CCCN2CCC(OC(c3ccccc3)c3ccccc3)CC2)cc1 [EBASTINE]
logP [2]: 2.74
Kd [3]: 4 nM
pA2 [4]: 7.4
ED50 (Cavia porcellus [5]): 0.45 mg/kg
ED50 (Cavia porcellus [6]): 1.71 mg/kg

Compound: O=C1C2C3C=CC(C4CC34)C2C(=O)N1CCCCN1CCN(C(c2ccc(F)cc2)c2ccc(F)cc2)CC1 (centres undefined)
inhibition [1]: 98%

Compound: CC(C)(C)c1ccc(C(O)CCCN2CCC(C(O)(c3ccccc3)c3ccccc3)CC2)cc1 (centres undefined) [TERFENADINE]
Kd [3]: 33 nM

Compound: Cl.Cl.Cn1c(=O)c2c(ncn2CCCN2CCN(C(c3ccc(F)cc3)c3ccc(F)cc3)CC2)n(C)c1=O
% inhibition [7]: 38%
logP [2]: 1.81
Kd [3]: 6.6 nM
pA2 [4]: 8.2
IC50 [8]: 59 nM
% inhibition (D(2) dopamine receptor): 43%
ED50 [9]: 0.45 mg/kg
ED50 (Cavia porcellus [5]): 1.96 mg/kg
inhibition [1]: 92%
IC50 (Histamine H1 receptor): 220 nM
IC50 [10]: 670 nM
IC50 [11]: > 10000 nM
Relative potency [12]: 0.0012

More lines, main results first:

inhibition [1]: 50%
Compound: Cn1c(=O)c2c(ncn2CCCN2CCN(c3ccc(Cl)nn3)CC2)n(C)c1=O

inhibition [1]: 77%
Compound: O=C1CC2(CCCC2)CC(=O)N1CCCCN1CCN(C(c2ccc(F)cc2)c2ccc(F)cc2)CC1

inhibition [1]: 29%
Compound: Cn1c(=O)c2c(ncn2CCCN2CCN(C(c3ccccc3)c3ccc(Cl)cc3)CC2)n(C)c1=O (centres undefined)

Kd [3]: 5.5 nM
ED50 [9]: 0.53 mg/kg
Compound: COc1ccc(CCN2CCC(Nc3nc4ccccc4n3Cc3ccc(F)cc3)CC2)cc1 [ASTEMIZOLE]
pA2 [4]: 8.3

inhibition [1]: < 10%
Compound: O=C1C2C3C=CC(C4CC34)C2C(=O)N1CCN1CCN(C(c2ccccc2)c2ccccc2)CC1 (centres undefined)

inhibition [1]: 76%
Compound: O=C1C2C3C=CC(C4CC34)C2C(=O)N1CCCCN1CCN(c2ccc(Cl)nn2)CC1 (centres undefined)

inhibition [1]: 50%
Compound: O=C1C2C3C=CC(C4CC34)C2C(=O)N1CCCCN1CCN(C(c2ccccc2)c2ccccc2)CC1 (centres undefined)

inhibition [1]: < 10%
Compound: O=C1C2C3C=CC(C4CC34)C2C(=O)N1CCN1CCN(C(c2ccc(F)cc2)c2ccc(F)cc2)CC1 (centres undefined)

Kd [3]: 3.7 nM
ED50 [9]: 0.79 mg/kg
ED50 [13]: 1.07 mg/kg
Compound: CN(C)CCC(c1ccc(Cl)cc1)c1ccccn1 (centres undefined) [CHLORPHENIRAMINE]
pA2 [4]: 8.4
